{"source": "patent US20180318291A1", "about": "“USE OF AMINOTHIAZOLE MYD88 SPECIFIC INHIBITOR TJM2010-5” (WUHAN INNAMUNE PHARMACEUTICAL INC. LTD., priority 2015, published 2018)", "key": {"RAW264.7 cell": {"tested_on": "RAW264.7 cell", "assay": "CD80 expression on RAW264.7 (macrophage) cells by flow cytometry", "format": "cell-based", "description": "TJM2010-5 can inhibit the up-regulation of RAW264.7 cell on costimulatory molecules CD80 caused by TLR stimulant (LPS, CpG), which means that TJM2010-5 can effectively block the TLR signal pathway, thus to inhibit the cells' immune reaction.\nRaw264.7: Place the cells into a 48-pore plate, the number of cells is 9×10^5/pore, and 1 ml of medium system is added to each pore. Firstly, add TJM2010-5 of different concentration gradients to pre-incubate the cells for 2 h, then, add the CPG to get the final concentration of 40 ug/ml, and then incubate them in CO2 incubator at 37° C. for one night (12 h). Add the flow antibody FITC to label anti-CD80, CD86, and conduct detection with machine;\nAdd the flow antibody FITC to label anti-CD80, CD86, and conduct detection with machine."}, "C57bl/6 mice": {"tested_on": "C57bl/6 mice", "assay": "BLM (bleomycin) pulmonary inflammation model", "format": "in vivo", "description": "1. Animal grouping: C57bl/6(B6) NaCl (200 μl nasal drip) group, C57bl/6 (B6) BLM group and TJM2010-5BLM group (provide intraperitoneal injection of TJM2010-5 dissolved in 0.5% CMC of 150 mg/kg/d on day 0-3, 5, 7, 9, 11, 13, 15).\n2. Construct pulmonary inflammation model with BLM (bleomycin) nasal drips: conduct airway anesthesia with 40 μl of ketaminexylazine, and administrate BLM sulfate by nasal dripping (300 μg or 15 mg/kg).\n3. Collect cell and cytokines with bronchoalveolar lavage fluid (BAL): Cut open the trachea and insert the plastic sleeve; then lavage with 0.3 ml of PBS at 37° C., and withdraw the lavage fluid (the withdrawn fluid is more than 95%), and repeat the process for 10 times. The lavage fluid consists of two parts: one part is used for detection of cytokins (600 g, conduct centrifugation for 10 min, collect and store the supernatant at −80° C. for detection); the other part is used for cell counting (0.4 ml, including substratum, suspension), count at 4° C.\n4. Detect cells and factors in tissue with pulmonary homogenate: After BAL, take and grind the whole lung, and conduct centrifugation to take supernatant, then, store it at −80 C° for detection of MPO.\n5. Conduct activity detection of pulmonary MPO: Completely lavage the lung with saline passing through right heart, and take pulmonary tissue homogenate, then conduct centrifugation to take supernatant. After that, suspend and precipitate it with 1 ml of PBS (including 0.5% of HTAB, 5 mM of EDTA). Conduct centrifugation, add 50 μl of supernatant into tube (200 μl of PBS-HTAB-EDTA, 2 ml of HBSS, 100 μl of o-dianisidine dihydrochloride (1.25 mg/ml), 100 μl of H2O2 0.05%), and put it into vortex water tank at 37° C. for 15 min. Then, stop the reaction with 100 μl of NaN3 1%, and detect the MPO absorption value with 460 nm.\n6. Conduct cell counting: Dye with MG-1L for 4 min, and dye with 95% of GS-500 for 8 min. Then, make smear to count cells.\n7. Conduct factor detection: detect the level of IL-6 with ELISA."}, "T cells": {"tested_on": "T cells", "assay": "activation of T cells (FIG. 3a)", "format": "cell-based"}, "[1]": {"tested_on": "skin of Balb/c mice transplanted to C57bl/6 mice", "assay": "mice skin transplantation model (graft survival, tolerance)", "format": "in vivo", "conditions": "Balb/c skin to C57bl/6; TJM2010-5 150 mg/kg/d ip, MR1 200 μg/d ip", "text": "2) Application of TJM2010-5 combined with costimulatory molecules inhibitor-anti-CD154 monoclonal antibody (MR1) in mice skin transplantation model\n[…] are set in the experiment, which are: allogeneic skin grafting control group (the rejection time reported in literature is 8-10 days), TJM2010-5 group, MR1 group and combination treatment group (TJM2010-5+MR1).\nThe specific handling methods as follows:\nAllogeneic skin grafting CMC control group: take and transplant the skin of Balb/c mice to the back of C57bl/6 mice, and provide intraperitoneal injection of 0.5% CMC on day 0 to day 3, and day 5, 7, 9, 11, 13, 15 after the operation, the does is 200 μl/day; in the homogenic skin transplantation group: take and transplant the […] of C57bl/6 mice to the back of C57bl/6 mice, and no special treatment is provided after operation.\nThe TJM2010-5 Group: take and transplant the skin of Balb/c mice to the back of C57bl/6 mice, and provide intraperitoneal injection of the TJM2010-5 dissolved in 0.5% CMC on day 0 to day 3, and day 5, 7, 9, 11, 13, 15 after the operation, the does is 150 mg/kg/d;\nThe MR1 Group: take and transplant the skin of Balb/c mice to the back of C57bl/6 mice, and provide intraperitoneal injection of MR 1 on day 0, 1, 3, 7, 14 after the operation, the does is of 200 μg/d; […]"}, "[2]": {"tested_on": "inflammatory factors (IL-1β, TNF-α, IL-6) in graft", "assay": "real time quantitative PCR of inflammatory factors in graft", "format": "in vivo, mice", "text": "1. Extract the total RNA from the receptor receiving antigen (homogenic, allogenic) stimulation by the TRIzol method;\n2. Reversely transcribe them to cDNA by the two-step method of RT-PCR;\n3. Make the standard curve to compare the measured relative level of IL-1β, TNF-α, IL-6."}}}
{"smiles": "O=C(CCN1CCN(Cc2ccccc2)CC1)Nc1nc(-c2ccccc2)cs1", "note": "[TJM2010-5, 3-(4-benzylpiperazin-1-yl)-N-(4-phenylthiazol-2-yl) propanamide]", "values": [{"measurement": "up-regulation of costimulatory molecule CD80 caused by TLR stimulant (LPS, CpG)", "setting": "RAW264.7 cell; RAW264.7 cell", "result": "inhibit"}, {"measurement": "expression of CD80 on macrophage surface", "setting": "RAW264.7 cell; Raw264.7, 2 h pre-incubation, CPG 40 ug/ml, 12 h, FIG. 3d", "result": "concentration-dependent inhibition"}, {"measurement": "recruitment of bronchialveolar neutrophile granulocyte", "setting": "C57bl/6 mice; 150 mg/kg/d intraperitoneal, FIG. 10b", "result": "reduces significantly"}, {"measurement": "level of IL-6 in lung tissue", "setting": "C57bl/6 mice; at 24 h, FIG. 11b", "result": "reduces"}, {"measurement": "total cell numbers in bronchial alveolar vs WT mice", "setting": "C57bl/6 mice; day 1, 7, 11, FIG. 10a", "result": "statistical differences"}, {"measurement": "MPO factor in lung tissue", "setting": "C57bl/6 mice; detection on day 7, FIG. 11a", "result": "reduced"}, {"measurement": "activation of T cells", "setting": "T cells", "result": "dose-dependently reduce"}, {"measurement": "effect on tolerance induction of the skin graft", "setting": "[1]", "result": "no obvious effect"}, {"measurement": "level of inflammatory factors (IL-1β, TNF-α, IL-6) in heart graft vs control group", "setting": "[2]; FIG. 9", "result": "significantly lower than that of control group"}, {"measurement": "level of IL-1β in graft vs CMC allogeneic transplantation group", "setting": "[2]; FIG. 9a", "result": "significantly lower than those in CMC allogeneic transplantation group"}, {"measurement": "level of IL-6 in graft vs CMC allogeneic transplantation group", "setting": "[2]; FIG. 9c", "result": "significantly lower than those in CMC allogeneic transplantation group"}]}
